Patent US6806291B1, “Analgesic compounds, their synthesis and pharmaceutical compositions containing them” (The Foundation for the LSU Health Sciences Center, priority 2003, dated 2004)

Key:
[1] = test system: human hepatocytes in primary cultures; experiment: Hepatotoxic effect in primary human hepatocytes, Trypan blue exclusion and Hoechst staining; format: cell-based
Procedure: […]. […] […].
Hoechst staining was employed for detection of apoptosis. […] 45 min.

[2] = test system: CAR (constitutive androstane receptor)
Procedure: (§1) The hepatotoxic effects of SCP-M1 were evaluated in human hepatocytes (HEPG-2) and in human primary cultures of normal liver cells. […] Phase contrast, microscopy, Trypan blue exclusion, Hoechst staining, and FAS-ligand and CAR (constitutive androstane receptor) induction were used as criteria. […] HEPG-2 cells were grown and maintained in EMEM medium containing NEAA (nonessential amino acids), supplemented with 10% fetal bovine serum (FBS), and incubated at 37° C. with a constant supply of 5% CO2. Primary human liver cells were grown in HCM medium (Walkersville, Md.), and maintained in HMM medium (Walkersville, Md.) at 37° C. with 5% CO2. 80% confluent cultures of HEPG2 and primary hepatocytes growing in 6- and 24-well plates, respectively were held 6-8 hr in serum-free medium (EMEM, 0.5% FBS for HEPG2 and HMM [Clonetics, Walkersville, Md.] for primary hepatocytes) before the addition of analgesics.
(§2) The up-regulation of FAS-ligand (FAS-L) and activation of CAR (constitutive androstane receptor) were analyzed by Western blot. Briefly, the cell extracts were made, and adjusted for protein concentrations by the Bio-rad method. About 15-20 μg protein were loaded onto an 8-16% gel (Bio-rad), and electrophoresis was conducted for 2 hr at 120 V. The proteins were transferred onto nitrocellulose membrane at 30 V for 60 min at 4° C.

FAS-ligand = test system: FAS-ligand
Procedure: as §1, §2

[3] = test system: human hepatocytes (HEPG-2)
Procedure: as §1

[4] = test system: Complete Freund's Adjuvant (CFA)-induced thermal hyperalgesia; experiment: CFA-induced thermal hyperalgesia (paw withdrawal latency, Hargreaves); format: in vivo, male CD-1 mice; details: 2.5 mmol/kg by oral gavage at 48 hours post-CFA; latency measured 30 minutes to 6 hour after drug; ANOVA drug effect p=0.014
Procedure: To determine whether the SCP-M series has analgesic activity, its effect on Complete Freund's Adjuvant (CFA)—induced thermal hyperalgesia was accessed. Under halothane anesthesia, male CD-1 mice were injected with 0.1 ml of CFA (Calbiochem, USA) to the glabrous surface of one hind paw. When injected into the footpad, CFA produces localized inflammation and hyperalgesia that appears within two hours and is present for 7 to 10 days (Iadorola, et al., 1988). At 48-hours post-CFA (time of peak hyperalgesia), each mouse received by oral gavage 2.5 mmol/kg of SCP-M1 or vehicle. The latency to withdraw the paw from a thermal stimulus (Hargreaves, et al., 1988) was measured using an analgesiometer (IITC Life Sciences, Inc., Woodland Hills, Calif.) according to the technique of Hargreaves, et al. The stimulus intensity was set to produce baseline latencies of about 10-15 seconds, and a 20 second maximum latency was used. Thermal hyperalgesia was measured before drug administration (pre-drug baseline), and again at 30 minutes, 1 hour, 2 hour, 3 hour, 4 hour, 5 hour, and 6 hour after drug administration.
No other statistically significant effects were found (time effect: F(6,90)=0.486, p=0.817; drugxtime interaction: F(6,90)=0.634, p=0.793). The effects of SCP-M1 on CFA-induced thermal hyperalgesia are shown as a percentage of pre-drug baseline in FIG. 1.

SMILES	apoptosis by Trypan blue exclusion and Hoechst staining ([1]; human hepatocytes in primary cultures, treated 6-8 hr at 37° C.)	CAR activation [2]	pro-apoptotic FAS-ligand up-regulation (FAS-ligand)	apoptosis by Trypan blue exclusion and Hoechst staining ([1]; human)	apoptotic cell death by Hoechst staining [3]	analgesic effect on CFA-induced thermal hyperalgesia vs vehicle treated controls [4]
CC(=O)Nc1ccc(O)cc1 [acetaminophen, reference compound]	enhanced apoptosis					
O=C(CNS(=O)(=O)c1ccccc1C(=O)O)Nc1ccc(O)cc1 [SCP-M1, 2-{[(4-hydroxyphenyl)carbamoyl]methylsulfamoyl}benzoic acid]		reduced effects	reduced effects	enhanced apoptosis was caused by acetaminophen but not SCP-M1	practically ineffective in inducing cell death	significant analgesic effect
